Assay results from patent US7996156B2, “Methods for predicting properties of molecules” (priority 2002, dated 2011).
Where two headings read alike, the source gives them in different places.

Key:
[1] = set-up: unit not given here; conditions: Minimal Inhibitory Concentration; cited from earlier work
[2] = Minimum inhibitory concentration of cephalosporin antibiotics; type: cell-based; set-up: unit not given here
Excerpt: This example describes the application of the disclosed CoSCoSA methods to model the minimum inhibitory concentration of cephalosporin antibotics, using only the through-bond (COSY-type) connections between carbons and between carbons and nitrogens in their structures. Bin sizes of 3 ppm by 3 ppm for carbon to carbon bins were used, and 10 ppm by 3 ppm for the nitrogen to carbon bins. […] The structures of the cephalosporins used in the model are shown below.

[3] = molecular target: T1, estrogen receptor (Rattus norvegicus, UniProt P06211); conditions: background statement; cited from earlier work
T1 construct: in rat uterine cytosol, which was obtained from ovariectomized uteri of Sprague-Dawley rats; from tissue; host or cells: uterine cytosol of ovariectomized Sprague-Dawley rats
T1 sequence (P06211 1-600): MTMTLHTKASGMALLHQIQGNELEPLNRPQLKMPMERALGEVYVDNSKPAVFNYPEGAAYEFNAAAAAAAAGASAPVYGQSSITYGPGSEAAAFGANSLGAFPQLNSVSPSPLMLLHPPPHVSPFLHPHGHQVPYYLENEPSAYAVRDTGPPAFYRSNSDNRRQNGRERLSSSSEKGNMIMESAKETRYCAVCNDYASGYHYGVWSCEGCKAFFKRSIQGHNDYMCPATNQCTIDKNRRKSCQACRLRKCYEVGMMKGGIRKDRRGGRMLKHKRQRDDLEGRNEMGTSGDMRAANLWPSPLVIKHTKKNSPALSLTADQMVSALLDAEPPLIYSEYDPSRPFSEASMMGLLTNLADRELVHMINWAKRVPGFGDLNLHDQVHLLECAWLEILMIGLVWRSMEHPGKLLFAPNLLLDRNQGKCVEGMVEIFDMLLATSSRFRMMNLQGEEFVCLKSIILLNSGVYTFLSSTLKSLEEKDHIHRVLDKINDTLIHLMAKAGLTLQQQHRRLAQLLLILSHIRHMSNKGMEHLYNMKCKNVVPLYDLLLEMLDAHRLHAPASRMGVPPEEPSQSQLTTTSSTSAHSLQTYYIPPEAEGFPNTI

[4] = test system: estrogen receptor; conditions: cited from earlier work
[5] = molecular target: T2, aryl hydrocarbon receptor (AhR) (Rattus norvegicus, UniProt P41738); conditions: cited from earlier work; for Experimental Log EC50: rodent hepatic cytosol
T2 construct: rodent hepatic cytosol as a source of the AhR; from tissue; host or cells: rodent hepatic cytosol
T2 sequence (P41738 10-853): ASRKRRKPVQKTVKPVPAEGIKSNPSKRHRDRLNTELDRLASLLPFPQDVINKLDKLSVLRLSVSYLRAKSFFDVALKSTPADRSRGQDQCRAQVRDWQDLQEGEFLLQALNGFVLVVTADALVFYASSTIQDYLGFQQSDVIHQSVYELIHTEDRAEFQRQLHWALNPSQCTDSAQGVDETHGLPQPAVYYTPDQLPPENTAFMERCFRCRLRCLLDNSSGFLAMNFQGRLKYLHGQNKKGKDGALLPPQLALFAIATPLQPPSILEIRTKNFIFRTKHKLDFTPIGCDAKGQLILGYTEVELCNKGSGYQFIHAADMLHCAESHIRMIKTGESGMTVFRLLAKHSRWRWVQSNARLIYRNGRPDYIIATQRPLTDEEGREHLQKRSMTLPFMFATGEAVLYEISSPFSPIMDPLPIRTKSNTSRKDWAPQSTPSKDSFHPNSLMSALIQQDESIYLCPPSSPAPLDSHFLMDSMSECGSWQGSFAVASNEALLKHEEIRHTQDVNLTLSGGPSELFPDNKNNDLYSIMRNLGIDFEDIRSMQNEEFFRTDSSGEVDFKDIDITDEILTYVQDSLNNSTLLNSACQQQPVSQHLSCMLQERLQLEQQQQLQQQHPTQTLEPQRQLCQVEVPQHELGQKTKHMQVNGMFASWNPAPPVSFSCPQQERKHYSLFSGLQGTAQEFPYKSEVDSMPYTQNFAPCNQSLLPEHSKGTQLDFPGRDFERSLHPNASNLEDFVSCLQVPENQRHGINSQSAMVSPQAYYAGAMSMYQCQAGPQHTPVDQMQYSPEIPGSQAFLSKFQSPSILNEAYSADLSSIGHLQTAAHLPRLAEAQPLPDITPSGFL

[6] = experimental values of Waller et al. and Kuiper et al. external test sets, normalized to NCTR data
[7] = log scale, competitive binding, [3H]-2,3,7,8-tetrachlorodioxin, previously reported training data
[8] = previously reported competitive in vitro AhR binding, [3H]-2,3,7,8-tetrachlorodioxin radioligand, values are log EC50

CO/N=C(\C(=O)N[C@@H]1C(=O)N2C(C(=O)O)=CCS[C@H]12)c1csc(N)n1 [Ceftizoxime]
MIC [1]: 8
Log(1/MIC) [2]: −.90

C/C(=C(/C)c1ccc(O)cc1)c1ccc(O)cc1 [dimethystilbesterol]
binding to the estrogen receptor (in words) [3]: bind strongly

CC12CCC3c4ccc(O)cc4CCC3C1CC(Br)C2O (stereo not drawn) [16a-bromoestradiol]
Normalized log (RBA) [4, 6]: 1.41

CC1=C(C(=O)O)N2C(=O)[C@@H](NC(=O)[C@H](N)C3=CCC=CC3)[C@H]2SC1 [Cephradine]
MIC [1]: 8
Log(1/MIC) [2]: −.90

CC(=O)OCC1=C(C(=O)O)N2C(=O)[C@@H](NC(=O)Cc3cccs3)[C@H]2SC1 [Cephalothin]
MIC [1]: 8
Log(1/MIC) [2]: −.90

N[C@@H](C(=O)N[C@@H]1C(=O)N2C(C(=O)O)=C(Cl)CS[C@H]12)c1ccccc1 [Cefaclor]
MIC [1]: 8
Log(1/MIC) [2]: −.90

CC(C)(C)c1cccc(O)c1 [3-tert-butylphenol]
Normalized log (RBA) [4, 6]: −4.82

C[C@]12CC[C@H]3[C@@H](CC=C4C[C@@H](O)CC[C@@]43C)[C@@H]1CC[C@@H]2O [5-Androstenediol]
Normalized log (RBA) [4]: −0.49

Clc1cc(Cl)c(-c2c(Cl)cc(Cl)cc2Cl)c(Cl)c1 [2,2′,4,4′,6,6′-hexaCl-biphenyl]
Normalized log (RBA) [4, 6]: −1.87

COCC1=C(C(=O)O)N2C(=O)[C@@H](NC(=O)/C(=N\OC)c3csc(N)n3)[C@H]2SC1 [Cefpodoxime]
Log(1/MIC) [2]: −.30

CO/N=C(\C(=O)N[C@@H]1C(=O)N2C(C(=O)O)=C(COC(N)=O)CS[C@H]12)c1ccco1 [Cefuroxime]
MIC [1]: 4
Log(1/MIC) [2]: −.60

CCC(=O)[C@@]1(C)CC[C@H]2[C@@H]3CCC4=CC(=O)CCC4=C3CC[C@@]21C [R 5020]
Normalized log (RBA) [4, 6]: −1.81

C[C@H]1CCCC(=O)CCC/C=C/c2cc(O)cc(O)c2C(=O)O1 [Zearalenone]
Normalized log (RBA) [4, 6]: 0.91

CO[C@@]1(NC(=O)Cc2cccs2)C(=O)N2C(C(=O)O)=C(COC(N)=O)CS[C@@H]21 [Cefoxitin]
MIC [1]: 16
Log(1/MIC) [2]: −1.20

O=C(c1ccc(OCCN2CCCCC2)cc1)c1c(-c2ccc(O)cc2)sc2cc(O)ccc12 [Raloxifene]
Normalized log (RBA) [4, 6]: 1.34

Oc1cc(Cl)c(-c2c(Cl)cccc2Cl)c(Cl)c1Cl [2,2′,3,6,6′-pentaCl-4-biphenylol]
Normalized log (RBA) [4, 6]: −1.97

C=CC1=C(C(=O)O)N2C(=O)[C@@H](NC(=O)/C(=N\OCC(=O)O)c3csc(N)n3)[C@H]2SC1 [Cefixime]
Log(1/MIC) [2]: −.90

Oc1cc(Cl)c(-c2c(Cl)cc(Cl)cc2Cl)c(Cl)c1Cl [2,2′,3,4′,6,6′-hexaCl-4-biphenylol]
Normalized log (RBA) [4, 6]: −2.60

Oc1ccc(-c2c(Cl)cc(Cl)cc2Cl)cc1 [2,4,6,-triCl-4′-biphenylol]
Normalized log (RBA) [4, 6]: −0.16

Oc1c(Cl)cc(Cl)c(Cl)c1-c1cc(Cl)cc(Cl)c1Cl [2,2′,3,3′,5,5′-heaxCl-6′-biphenylol]
Normalized log (RBA) [4, 6]: −2.69

CCN1CCN(C(=O)N[C@@H](C(=O)N[C@@H]2C(=O)N3C(C(=O)O)=C(CSc4nnnn4C)CS[C@H]23)c2ccc(O)cc2)C(=O)C1=O [Cefaperazone]
MIC [1]: 16
Log(1/MIC) [2]: −1.20

CC1=C(C(=O)O)N2C(=O)[C@@H](NC(=O)[C@H](N)c3ccccc3)[C@H]2SC1 [Cephalexin]
MIC [1]: 8
Log(1/MIC) [2]: −.90

Oc1ccc(-c2c(Cl)c(Cl)c(O)c(Cl)c2Cl)cc1 [2,3,5,6,tetraCl-4,4′-biphenyldiol]
Normalized log (RBA) [4, 6]: −2.18

Oc1ccc(-c2c(Cl)cccc2Cl)cc1 [2,6-dichloro-4′-biphenylol]
Normalized log (RBA) [4, 6]: −1.11

Clc1ccc(Cl)c(-c2cc(Cl)ccc2Cl)c1 [2,2′5,5′-tetraCl-biphenyl]
Normalized log (RBA) [4, 6]: −2.67

CCC1=C(c2ccc(O)cc2)[C@H](C)c2cc(O)ccc21 [Indenestrol A (R)]
Normalized log (RBA) [4, 6]: 1.08

Clc1cc(Cl)c(-c2cc(Cl)c(Cl)cc2Cl)cc1Cl [2,2′,4,4′,5,5′-hexaCl-biphenyl]
Normalized log (RBA) [4, 6]: −2.83
Experimental Log EC50 [5, 7]: −5.10
Experimental Log EC50 [5, 8]: −5.10

Clc1cc2c(oc3cc(Cl)c(Cl)c(Cl)c32)c(Cl)c1Cl [1,2,3,6,7,8-hexaCl-dibenzofuran]
Experimental Log EC50 [5, 7]: −7.57
Experimental Log EC50 [5, 8]: −7.57

Clc1cc2oc3c(Cl)cccc3c2c(Cl)c1Cl [1,2,3,6-tetraCl-dibenzofuran]
Experimental Log EC50 [5, 7]: −7.46
Experimental Log EC50 [5, 8]: −7.46

Clc1cc(-c2ccccc2)c(Cl)c(Cl)c1Cl [2,3,4,5-tetraCl-biphenyl]
Experimental Log EC50 [5, 7]: −4.85
Experimental Log EC50 [5, 8]: −4.85

Clc1cc(Cl)c2c(c1)Oc1cc(Cl)c(Cl)cc1O2 [1,3,7,8-tetraCl-dibenzodioxin]
Experimental Log EC50 [5, 7]: −7.10
Experimental Log EC50 [5, 8]: −7.10

Clc1ccc2c(c1)Oc1c(Cl)c(Cl)c(Cl)c(Cl)c1O2 [1,2,3,4,7-pentaCl-dibenzodioxin]
Experimental Log EC50 [5, 7]: −6.19
Experimental Log EC50 [5, 8]: −6.19

Clc1cc2c(cc1Cl)Oc1c(cc(Cl)c(Cl)c1Cl)O2 [1,2,3,7,8-pentaCl-dibenzodioxin]
Experimental Log EC50 [5, 7]: −8.10
Experimental Log EC50 [5, 8]: −8.10

Clc1cc2c(cc1Cl)Oc1cc(Cl)c(Cl)cc1O2 [2,3,7,8-tetraCl-dibenzodioxin]
binding to the AhR (in words) [5]: strong binder
Experimental Log EC50 [5, 7]: −9.00
Experimental Log EC50 [5, 8]: −9.00

Clc1cc2c(cc1Cl)Oc1c(Cl)c(Cl)c(Cl)c(Cl)c1O2 [1,2,3,4,7,8-hexaCl-dibenzodioxin]
Experimental Log EC50 [5, 7]: −7.55
Experimental Log EC50 [5, 8]: −7.55

Clc1ccc(-c2cc(Cl)c(Cl)c(Cl)c2)cc1Cl [3,3′,4,4′,5-pentaCl-biphenyl]
Experimental Log EC50 [5, 7]: −7.92
Experimental Log EC50 [5, 8]: −7.92

C[C@]12CC[C@@H]3c4ccc(O)cc4CC[C@H]3[C@@H]1CC(=O)[C@@H]2O [16-ketoestradiol]
Normalized log (RBA) [4]: −0.38

CC(=O)OCC1=C(C(=O)O)N2C(=O)[C@@H](NC(=O)CSc3ccncc3)[C@H]2SC1 [Cephapirin]
MIC [1]: 8
Log(1/MIC) [2]: −.90

Clc1cccc2c1Oc1ccccc1O2 [1-Cl-dibenzodioxin]
Experimental Log EC50 [5, 7]: −5.00
Experimental Log EC50 [5, 8]: −5.00

Oc1cc(Cl)c(-c2c(Cl)ccc(Cl)c2Cl)c(Cl)c1Cl [2,2′,3,3′,6,6′-hexaCl-4-biphenylol]
Normalized log (RBA) [4, 6]: −2.74

CO[C@@]1(NC(=O)CSCC#N)C(=O)N2C(C(=O)O)=C(CSc3nnnn3C)CS[C@@H]21 [Cefmetazole]
MIC [1]: 16
Log(1/MIC) [2]: −1.20

CO[C@@]1(NC(=O)C2SC(=C(C(N)=O)C(=O)O)S2)C(=O)N2C(C(=O)O)=C(CSc3nnnn3C)CS[C@@H]21 (stereo partly drawn) [Cefotetan]
Log(1/MIC) [2]: −1.20

CCC1=C(c2ccc(O)cc2)[C@@H](C)c2cc(O)ccc21 [Indenestrol A (S)]
Normalized log (RBA) [4, 6]: 2.39

Oc1ccc(-c2ccc(O)cc2Cl)cc1 [2-Cl-4,4′-biphenyldiol]
Normalized log (RBA) [4, 6]: −0.61

CC(C)(O/N=C(\C(=O)N[C@@H]1C(=O)N2C(C(=O)[O-])=C(C[n+]3ccccc3)CS[C@H]12)c1csc(N)n1)C(=O)O [Ceftazidime]
MIC [1]: 16
Log(1/MIC) [2]: −1.20
